Data taken from the NIST ThermoML archive (doi:10.1021/je050031f).
± gives the expanded uncertainty stated by the source.

Columns and labels:
[1] = xn = mol fraction of the nth substance listed; settings: 308.15 K, 100.8 kPa, Liquid
[2] = refractive index (Na D-line) (dimensionless); xn = mol fraction of the nth substance listed; settings: 100.8 kPa, Liquid, Standard Abbe refractometry

CC(C)OC(C)C [diisopropyl ether] + CCO
[1]
Settings | mass density [kg/m3] | viscosity [mPa·s]
x1 = 0.3 | 747.9 ± 0.3 | 0.52 ± 0.007
x1 = 0.35 | 744.2 ± 0.3 | 0.484 ± 0.007
x1 = 0.4 | 740.7 ± 0.3 | 0.452 ± 0.006
x1 = 0.45 | 737.3 ± 0.3 | 0.427 ± 0.006
x1 = 0.5 | 734.1 ± 0.3 | 0.403 ± 0.006
x1 = 0.55 | 731.1 ± 0.3 | 0.382 ± 0.006
x1 = 0.6 | 728.3 ± 0.3 | 0.364 ± 0.006
x1 = 0.65 | 725.6 ± 0.3 | 0.349 ± 0.005
x1 = 0.7 | 723 ± 0.3 | 0.335 ± 0.005
x1 = 0.75 | 720.5 ± 0.3 | 0.325 ± 0.005
x1 = 0.8 | 718 ± 0.3 | 0.315 ± 0.005
x1 = 0.85 | 715.5 ± 0.3 | 0.306 ± 0.005
x1 = 0.9 | 713.1 ± 0.3 | 0.298 ± 0.005
x1 = 0.95 | 710.6 ± 0.3 | 0.29 ± 0.005
x1 = 1 | 707.9 ± 0.3 | 0.283 ± 0.005

refractive index, [2]
Settings | 288.15 K | 298.15 K | 308.15 K
x1 = 0.05 | 1.3657 ± 0.00031 | 1.36097 ± 0.00031 | 1.35649 ± 0.00031
x1 = 0.1 | 1.36697 ± 0.00031 | 1.36212 ± 0.00031 | 1.35757 ± 0.00031
x1 = 0.15 | 1.368 ± 0.00031 | 1.36316 ± 0.00031 | 1.35852 ± 0.00031
x1 = 0.2 | 1.36883 ± 0.00031 | 1.36395 ± 0.00031 | 1.35926 ± 0.00031
x1 = 0.25 | 1.36952 ± 0.00031 | 1.36457 ± 0.00031 | 1.3598 ± 0.00031
x1 = 0.3 | 1.37013 ± 0.00031 | 1.36509 ± 0.00031 | 1.36021 ± 0.00031
x1 = 0.35 | 1.37062 ± 0.00031 | 1.3655 ± 0.00031 | 1.36057 ± 0.00031
x1 = 0.4 | 1.37102 ± 0.00031 | 1.36587 ± 0.00031 | 1.36083 ± 0.00031
x1 = 0.45 | 1.37134 ± 0.00031 | 1.36612 ± 0.00031 | 1.36102 ± 0.00031
x1 = 0.5 | 1.37158 ± 0.00031 | 1.36632 ± 0.00031 | 1.36113 ± 0.00031
x1 = 0.55 | 1.37175 ± 0.00031 | 1.36644 ± 0.00031 | 1.36119 ± 0.00031
x1 = 0.6 | 1.3719 ± 0.00031 | 1.36651 ± 0.00031 | 1.36118 ± 0.00031
x1 = 0.65 | 1.37197 ± 0.00031 | 1.36652 ± 0.00031 | 1.36116 ± 0.00031
x1 = 0.7 | 1.37196 ± 0.00031 | 1.36651 ± 0.00031 | 1.36112 ± 0.00031
x1 = 0.75 | 1.37192 ± 0.00031 | 1.36645 ± 0.00031 | 1.36103 ± 0.00031
x1 = 0.8 | 1.37188 ± 0.00031 | 1.36635 ± 0.00031 | 1.36089 ± 0.00031
x1 = 0.85 | 1.37178 ± 0.00031 | 1.36621 ± 0.00031 | 1.36071 ± 0.00031
x1 = 0.9 | 1.37162 ± 0.00031 | 1.36597 ± 0.00031 | 1.36042 ± 0.00031
x1 = 0.95 | 1.37141 ± 0.00031 | 1.36566 ± 0.00031 | 1.36 ± 0.00031
x1 = 1 | 1.37126 ± 0.00031 | 1.36537 ± 0.00031 | 1.35954 ± 0.00031
